System: adult patients with NF1-related PN
Assay: Phase I dose-escalation: DLT, MTD, RP2D and drug-related TEAEs (CTCAE v5.0)
Procedure: This is a multicenter, open-label, single-arm, non-randomized, phase I dose-escalation trial to evaluate the safety, tolerability, pharmacokinetic (PK), and anti-tumor activity of orally administered FCN-159 in adult patients with NF1 (NCT04954001). Phase I commenced with dose escalation in adult patients following a standard 3 + 3 design (Supplementary Table S1) to determine the maximum tolerated dose (MTD) of FCN-159 administered daily under fasting conditions (defined as no food or drink 1 h before and 2 h after each dose) in 28-day cycles. Study drug was dispensed at the study site and patient adherence was monitored by the records of drug dispensation and return. Patients were on treatment until PD, death, patient's voluntary withdrawal from study treatment, or study termination. The study was followed for 2 years after the last patient in. The starting dose was 4 mg, escalating in cohorts of at least three evaluable patients at 6 mg, 8 mg, and 12 mg until the MTD was determined. The starting dose in this study was determined based on available data from a phase 1a, first-in-human study of FCN-159 in patients with advanced NRAS ^mut+ melanoma at the time of study design. […] Dose expansion at a likely RP2D level enrolled approximately six patients. The highest dose level with a dose-limiting toxicity (DLT) incidence rate ≤ 33% (0/3 or 1/6 patients) was to be considered the MTD. If patients experienced grade ≥ 3 and/or unacceptable toxic events that were considered as at least possibly related to the study treatment, the study treatment was discontinued and supportive treatment was given in accordance with local treatment routines. If the toxicity returned to grade ≤ 2 within 28 days after the occurrence, and there was no progression on patients’ conditions or the investigator believed that patients could benefit from the study treatment, the original dose could be maintained or reduced after discussion with medical monitor. After completion of the dose escalation part of the study, PK, efficacy, safety, and tolerability data were analyzed to select the RP2D.
Primary endpoints of the study were the DLT incidence rate, MTD, and RP2D. Secondary endpoints included other safety assessments, imaging tumor response (complete response [CR], PR, stable disease [SD], or progressive disease [PD]), and PK parameters of FCN-159. Adverse events were graded per CTCAE v5.0.
All patients underwent a complete medical history, physical examination, Eastern Cooperative Oncology Group (ECOG) assessment, and laboratory analysis of test results. Drug-related TEAEs, serious adverse events (SAEs), TEAEs of grade ≥ 3 toxicity, and TEAEs leading to drug discontinuation were reviewed on an ongoing basis. Efficacy was assessed by radiologic scans and clinical assessment. Tumor assessments per Response Evaluation in Neurofibromatosis Schwannomatosis criteria were performed by investigators using MRI volumetric analysis every 4 cycles within the first 2 years (± 7 days) and every 6 cycles after 2 years (± 14 days) until PD, death, patient's voluntary withdrawal from study treatment, or study termination. MRI sequences of […], T1- and T2-weighted sequences were chosen and the software of Extended Brilliance Workspace, SIGNA Premier and uExceed were used for MRI volumetric analysis. The same software was used for all tumor assessments at baseline and subsequent assessed timepoints of the same patient. Pain was assessed by an 11-point numerical rating scale (NRS-11).
The sample size for the dose-escalation study was estimated to be 24 based on the 3 + 3 method. Safety was analyzed in patients who received at least one dose of FCN-159 and had at least one safety assessment. DLT was assessed in the DLT analysis set, defined as patients who were enrolled in the dose-escalation study and met the DLT evaluation criteria.

Cn1c(=O)c(F)c(Nc2ccc(I)cc2F)c2c(=O)n(C3CC3)nc(-c3cccc(NS(=O)(=O)C4CC4)c3)c21 [FCN-159]
Drug-related TEAE: Urticaria (12 mg (N = 4)): 1 (25.0) n (%)
Drug-related TEAE: Vision blurred (12 mg (N = 4)): 0 n (%)
Drug-related TEAE: Visual acuity reduced (12 mg (N = 4)): 0 n (%)
Drug-related TEAE: pH urine decreased (12 mg (N = 4)): 0 n (%)
Drug-related TEAE: pH urine increased (12 mg (N = 4)): 0 n (%)
Subjects with any drug-related TEAE (12 mg (N = 4)): 4 (100) n (%)
Patients with DLT (grade 3 folliculitis) (12 mg, 3 of 3 patients): 100%
Drug-related TEAE: Abdominal pain (Total (N = 19)): 1 (5.3) n (%)
Drug-related TEAE: Acne (Total (N = 19)): 1 (5.3) n (%)
Drug-related TEAE: Acne pustular (Total (N = 19)): 1 (5.3) n (%)
Drug-related TEAE: Alanine aminotransferase increased (Total (N = 19)): 2 (10.5) n (%)
Drug-related TEAE: Albumin globulin ratio decreased (Total (N = 19)): 1 (5.3) n (%)
Drug-related TEAE: Alopecia (Total (N = 19)): 5 (26.3) n (%)
Drug-related TEAE: Amylase increased (Total (N = 19)): 1 (5.3) n (%)
Drug-related TEAE: Anemia (Total (N = 19)): 1 (5.3) n (%)
Drug-related TEAE: Aortic dilatation (Total (N = 19)): 1 (5.3) n (%)
Drug-related TEAE: Aspartate aminotransferase increased (Total (N = 19)): 2 (10.5) n (%)
Drug-related TEAE: Asthenia (Total (N = 19)): 1 (5.3) n (%)
Drug-related TEAE: Beta globulin decreased (Total (N = 19)): 1 (5.3) n (%)
Drug-related TEAE: Beta globulin increased (Total (N = 19)): 2 (10.5) n (%)
Drug-related TEAE: Blood alkaline phosphatase increased (Total (N = 19)): 6 (31.6) n (%)
Drug-related TEAE: Blood bilirubin increased (Total (N = 19)): 5 (26.3) n (%)
Drug-related TEAE: Blood creatine phosphokinase increased (Total (N = 19)): 3 (15.8) n (%)
Drug-related TEAE: Blood fibrinogen increased (Total (N = 19)): 4 (21.1) n (%)
Drug-related TEAE: Blood lactate dehydrogenase increased (Total (N = 19)): 4 (21.1) n (%)
Drug-related TEAE: Blood pressure increased (Total (N = 19)): 1 (5.3) n (%)
Drug-related TEAE: Blood urea increased (Total (N = 19)): 4 (21.1) n (%)
Drug-related TEAE: Blood uric acid increased (Total (N = 19)): 2 (10.5) n (%)
Drug-related TEAE: Breath odor (Total (N = 19)): 3 (15.8) n (%)
Drug-related TEAE: Capillary disorder (Total (N = 19)): 1 (5.3) n (%)
Drug-related TEAE: Constipation (Total (N = 19)): 3 (15.8) n (%)
Drug-related TEAE: Decreased appetite (Total (N = 19)): 1 (5.3) n (%)
Drug-related TEAE: Dermatitis acneiform (Total (N = 19)): 1 (5.3) n (%)
Drug-related TEAE: Diarrhea (Total (N = 19)): 1 (5.3) n (%)
Drug-related TEAE: Drug eruption (Total (N = 19)): 5 (26.3) n (%)
Drug-related TEAE: Dyslipidemia (Total (N = 19)): 2 (10.5) n (%)
Drug-related TEAE: Ejection fraction decreased (Total (N = 19)): 1 (5.3) n (%)
Drug-related TEAE: Electrocardiogram QT prolonged (Total (N = 19)): 1 (5.3) n (%)
Drug-related TEAE: Electrocardiogram abnormal (Total (N = 19)): 2 (10.5) n (%)
Drug-related TEAE: Epistaxis (Total (N = 19)): 2 (10.5) n (%)
Drug-related TEAE: Folliculitis (Total (N = 19)): 9 (47.4) n (%)
Drug-related TEAE: Functional gastrointestinal disorder (Total (N = 19)): 1 (5.3) n (%)
Drug-related TEAE: Gamma-glutamyltransferase increased (Total (N = 19)): 1 (5.3) n (%)
Drug-related TEAE: Gingival pain (Total (N = 19)): 1 (5.3) n (%)
Drug-related TEAE: Hyperlipidemia (Total (N = 19)): 1 (5.3) n (%)
Drug-related TEAE: Hypertension (Total (N = 19)): 1 (5.3) n (%)
Drug-related TEAE: Hypoalbuminemia (Total (N = 19)): 1 (5.3) n (%)
Drug-related TEAE: Hypocalcemia (Total (N = 19)): 2 (10.5) n (%)
Drug-related TEAE: Hypophosphatemia (Total (N = 19)): 1 (5.3) n (%)
Drug-related TEAE: Hypoproteinemia (Total (N = 19)): 1 (5.3) n (%)
Drug-related TEAE: Immunoglobulins increased (Total (N = 19)): 4 (21.1) n (%)
Drug-related TEAE: Impetigo (Total (N = 19)): 1 (5.3) n (%)
Drug-related TEAE: Left atrial enlargement (Total (N = 19)): 1 (5.3) n (%)
Drug-related TEAE: Lipoprotein abnormal (Total (N = 19)): 1 (5.3) n (%)
Drug-related TEAE: Malaise (Total (N = 19)): 1 (5.3) n (%)
Drug-related TEAE: Menstrual disorder (Total (N = 19)): 2 (10.5) n (%)
Drug-related TEAE: Mitral valve incompetence (Total (N = 19)): 4 (21.1) n (%)
Drug-related TEAE: Mouth ulceration (Total (N = 19)): 4 (21.1) n (%)
Drug-related TEAE: Muscular weakness (Total (N = 19)): 1 (5.3) n (%)
Drug-related TEAE: Oedema peripheral (Total (N = 19)): 1 (5.3) n (%)
Drug-related TEAE: Pain in extremity (Total (N = 19)): 1 (5.3) n (%)
Drug-related TEAE: Paronychia (Total (N = 19)): 6 (31.6) n (%)
Drug-related TEAE: Prealbumin decreased (Total (N = 19)): 1 (5.3) n (%)
Drug-related TEAE: Protein urine present (Total (N = 19)): 5 (26.3) n (%)
Drug-related TEAE: Pruritus (Total (N = 19)): 1 (5.3) n (%)
Drug-related TEAE: QRS axis abnormal (Total (N = 19)): 4 (21.1) n (%)
Drug-related TEAE: Rash (Total (N = 19)): 3 (15.8) n (%)
Drug-related TEAE: Sinus arrhythmia (Total (N = 19)): 1 (5.3) n (%)
Drug-related TEAE: Sinus bradycardia (Total (N = 19)): 1 (5.3) n (%)
Drug-related TEAE: Sinusitis (Total (N = 19)): 1 (5.3) n (%)
Drug-related TEAE: Skin exfoliation (Total (N = 19)): 1 (5.3) n (%)
Drug-related TEAE: Specific gravity urine increased (Total (N = 19)): 5 (26.3) n (%)
Drug-related TEAE: Stomatitis (Total (N = 19)): 7 (36.8) n (%)
Drug-related TEAE: Supraventricular extrasystoles (Total (N = 19)): 1 (5.3) n (%)
Drug-related TEAE: Total bile acids increased (Total (N = 19)): 3 (15.8) n (%)
Drug-related TEAE: Tricuspid valve incompetence (Total (N = 19)): 3 (15.8) n (%)
Drug-related TEAE: Urinary occult blood positive (Total (N = 19)): 3 (15.8) n (%)
Drug-related TEAE: Urinary sediment present (Total (N = 19)): 1 (5.3) n (%)
Drug-related TEAE: Urinary tract infection (Total (N = 19)): 1 (5.3) n (%)
Drug-related TEAE: Urine ketone body present (Total (N = 19)): 2 (10.5) n (%)
Drug-related TEAE: Urobilinogen urine increased (Total (N = 19)): 5 (26.3) n (%)
Drug-related TEAE: Urticaria (Total (N = 19)): 1 (5.3) n (%)
Drug-related TEAE: Vision blurred (Total (N = 19)): 1 (5.3) n (%)
Drug-related TEAE: Visual acuity reduced (Total (N = 19)): 1 (5.3) n (%)
Drug-related TEAE: pH urine decreased (Total (N = 19)): 3 (15.8) n (%)
Drug-related TEAE: pH urine increased (Total (N = 19)): 2 (10.5) n (%)
Subjects with any drug-related TEAE (Total (N = 19)): 19 (100) n (%)
Patients with grade 3 drug-related folliculitis (all dose levels): five
Patients with grade 3 drug-related paronychia (all dose levels): four
Patients with FCN-159-related TEAEs (all dose levels, n = 19): 100%
Patients with grade 3 study-drug-related TEAEs (all dose levels, nine of 19 patients): 47.4%
Blurred vision (all patients, n = 1/19): 5.3%
Reduced visual acuity (all patients, n = 1/19): 5.3%
Drug-related TEAE mouth ulceration (all patients, n = 4/19): 21.1%
Drug-related TEAE increased blood alkaline phosphatase (all patients, n = 6/19): 31.6%
Drug-related TEAE paronychia (all patients, n = 6/19): 31.6%
Drug-related TEAE stomatitis (all patients, n = 7/19): 36.8%
Drug-related TEAE folliculitis (all patients, n = 9/19): 47.4%
Drug-related gastrointestinal disorders (all patients, twelve patients): 63.2%
Patients with eye disorders (all patients, two patients): 10.5%
Recommended phase II dose (RP2D) (daily): 8 mg
Maximum tolerated dose (MTD) (daily, 28-day cycles, fasting): 8 mg
Deaths during the study (in vivo): No patients died
Dose reduction (mainly due to grade 3 paronychia and folliculitis): 42.1%
Grade 3 drug-related TEAE in patients receiving doses below the MTD (paronychia, 6 mg dose): Only one
SAE during treatment that led to drug withdrawal (rhegmatogenous retinal detachment, present at baseline, considered unrelated to the study drug): One patient

— PMC10318822, “Phase 1 dose-escalation study to evaluate the safety, tolerability, pharmacokinetics, and anti-tumor activity of FCN-159 in adults with neurofibromatosis type 1-related unresectable plexiform neurofibromas” (BMC Medicine, 2023)
